Reference: US20250179052A1, “PYRIMIDINYL-OXY-QUINOLINE BASED HERBICIDAL COMPOUNDS” (SYNGENTA CROP PROTECTION AG, priority 2022, published 2025)

Assays:
Conditions in all cases: 250 g/ha, evaluated after 13 days, five-point scale
[1] = tested on: Ipomoea hederacea (IPOHE); test: Pre-emergence herbicidal glasshouse test; type: in vivo
Setaria faberi (SETFA) [2] = test: Pre-emergence herbicidal glasshouse test; type: in vivo
[3] = tested on: Ipomoea hederacea (IPOHE); test: Post-emergence herbicidal glasshouse test; type: in vivo
[4] = tested on: Amaranthus retoflexus (AMARE); test: Pre-emergence herbicidal glasshouse test; type: in vivo
AMAPA [5] = test: Pre-emergence herbicidal glasshouse test; type: in vivo, Amaranthus tuberculatus
[6] = tested on: Amaranthus retoflexus (AMARE); test: Post-emergence herbicidal glasshouse test; type: in vivo
[7] = tested on: Echinochloa crus-galli (ECHCG); test: Post-emergence herbicidal glasshouse test; type: in vivo
Setaria faberi (SETFA) [8] = test: Post-emergence herbicidal glasshouse test; type: in vivo
AMAPA [9] = test: Post-emergence herbicidal glasshouse test; type: in vivo, Amaranthus tuberculatus
[10] = tested on: Echinochloa crus-galli (ECHCG); test: Pre-emergence herbicidal glasshouse test; type: in vivo

SMILES | percentage damage caused to the plant, IPOHE [1] | percentage damage caused to the plant, SETFA (Setaria faberi (SETFA) [2]) | percentage damage caused to the plant, IPOHE [3] | percentage damage caused to the plant, AMARE [4] | percentage damage caused to the plant, AMAPA (AMAPA [5]) | percentage damage caused to the plant, AMARE [6] | percentage damage caused to the plant, ECHCG [7] | percentage damage caused to the plant, SETFA (Setaria faberi (SETFA) [8]) | percentage damage caused to the plant, AMAPA (AMAPA [9]) | percentage damage caused to the plant, ECHCG [10]
Cc1nc(C(F)(F)F)nc2c(Br)ccc(Oc3ncc(Cl)cn3)c12 [Compound 1.072] | 1 (1=0-20%) | 1 (1=0-20%) | 1 (1=0-20%) | 1 (1=0-20%) | 2 (2=21-40%) | 1 (1=0-20%) | 1 (1=0-20%) | 1 (1=0-20%) | 1 (1=0-20%) | 1 (1=0-20%)
FC(F)c1ncc2c(Oc3ncc(Cl)cn3)cccc2n1 [Compound 1.019] | 4 (4=61-80%) | 5 (5=81-100%) | 4 (4=61-80%) | 5 (5=81-100%) | 5 (5=81-100%) | 4 (4=61-80%) | 2 (2=21-40%) | 3 (3=41-60%) | 3 (3=41-60%) | 5 (5=81-100%)
Cc1ccc(Oc2ncc(Br)cn2)c2cnc(C(F)(F)Cl)nc12 [Compound 1.047] | 1 (1=0-20%) | 1 (1=0-20%) | 2 (2=21-40%) | 2 (2=21-40%) | 2 (2=21-40%) | 2 (2=21-40%) | 1 (1=0-20%) | 1 (1=0-20%) | 2 (2=21-40%) | 1 (1=0-20%)
FC(F)(F)c1ccc2c(Oc3ncc(Br)cn3)cccc2n1 [Compound 1.041] | 2 (2=21-40%) | 4 (4=61-80%) | 3 (3=41-60%) | 5 (5=81-100%) | 5 (5=81-100%) | 5 (5=81-100%) | 2 (2=21-40%) | 4 (4=61-80%) | 5 (5=81-100%) | 3 (3=41-60%)
Fc1cc(Cl)cnc1Oc1cccc2nc(C(F)(F)F)ncc12 [Compound 1.006] | 1 (1=0-20%) | 1 (1=0-20%) | 2 (2=21-40%) | 1 (1=0-20%) | 1 (1=0-20%) | 2 (2=21-40%) | 1 (1=0-20%) | 1 (1=0-20%) | 1 (1=0-20%) | 1 (1=0-20%)
N#Cc1cnc(Oc2cccc3nc(C(F)(F)F)ncc23)nc1 [Compound 1.003] | 1 (1=0-20%) | 1 (1=0-20%) | 1 (1=0-20%) | 1 (1=0-20%) | 1 (1=0-20%) | 1 (1=0-20%) | 1 (1=0-20%) | 1 (1=0-20%) | 1 (1=0-20%) | 1 (1=0-20%)
COc1ncc2c(Oc3ncc(Cl)cn3)cccc2n1 [Compound 1.016] | 4 (4=61-80%) | 3 (3=41-60%) | 2 (2=21-40%) | 5 (5=81-100%) | 5 (5=81-100%) | 4 (4=61-80%) | 1 (1=0-20%) | 1 (1=0-20%) | 5 (5=81-100%) | 3 (3=41-60%)
FC(F)(F)c1ncc2c(Oc3ncc(Cl)cn3)ccc(Br)c2n1 [Compound 1.071] | 1 (1=0-20%) | 4 (4=61-80%) | 2 (2=21-40%) | 3 (3=41-60%) | 5 (5=81-100%) | 3 (3=41-60%) | 1 (1=0-20%) | 1 (1=0-20%) | 2 (2=21-40%) | 3 (3=41-60%)
